Assays:
Assay in all cases: kinase binding constant, 11-point dose response (T7 phage, qPCR)
Conditions in all cases: >30 = no inhibition at highest concentration tested
BMPR1B = BMPR1B (Homo sapiens, UniProt O00238)
Experimental: (§1) Kinase inhibition studies were performed by methods well known in the prior art (Fabian, M. A. et al. Nat. Biotechnol. 2005, 23, 329). Briefly, kinase-tagged T7 phage strains were prepared in an E. coli host derived from the BL21 strain. E. coli were grown to log-phase and infected with T7 phage and incubated with shaking at 32° C. until lysis. The lysates were centrifuged and filtered to remove cell debris. […] The liganded beads were blocked with excess biotin and washed with blocking buffer (SeaBlock (Pierce); 1% BSA, 0.05% Tween 20, 1 mM DTT) to remove unbound ligand and to reduce non-specific binding. […] All reactions were performed in polystyrene 96-well plates in a final volume of 0.135 ml. […] The kinase concentration in the eluates was measured by qPCR.
(§2) An 11-point 3-fold serial dilution of each test compound (from 30 μM to 0.5 nM) was prepared in 100% DMSO at 100× final test concentration and subsequently diluted to 1× in the assay (final DMSO concentration=1%). Binding constants (KDS) were calculated with a standard dose-response curve using a 5-point sigmoidal (Hill) equation.

CLK2 = CLK2 (Homo sapiens, UniProt P49760)
Experimental: as §1, §2

DYRK2 = target: T1, DYRK2 (Homo sapiens, UniProt Q92630)
T1 sequence (Q92630 1-601): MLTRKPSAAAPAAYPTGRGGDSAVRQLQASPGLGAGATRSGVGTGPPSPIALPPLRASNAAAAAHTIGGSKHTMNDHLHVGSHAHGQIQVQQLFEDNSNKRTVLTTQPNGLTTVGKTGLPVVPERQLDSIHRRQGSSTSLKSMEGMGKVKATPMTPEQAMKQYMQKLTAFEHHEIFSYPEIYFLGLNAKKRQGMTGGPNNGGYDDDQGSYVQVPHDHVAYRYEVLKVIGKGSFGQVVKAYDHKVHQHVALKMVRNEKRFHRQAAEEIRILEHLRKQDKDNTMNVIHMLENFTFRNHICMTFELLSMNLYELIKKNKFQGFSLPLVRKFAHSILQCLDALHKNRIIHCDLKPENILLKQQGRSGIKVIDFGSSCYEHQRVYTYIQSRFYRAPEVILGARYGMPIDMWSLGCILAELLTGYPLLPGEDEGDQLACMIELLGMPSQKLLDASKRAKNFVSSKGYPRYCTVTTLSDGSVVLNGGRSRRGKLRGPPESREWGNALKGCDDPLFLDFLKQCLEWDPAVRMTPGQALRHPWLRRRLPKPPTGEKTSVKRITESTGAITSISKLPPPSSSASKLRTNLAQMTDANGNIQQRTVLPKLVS
Experimental: as §1, §2

AAK1 = AAK1 (Homo sapiens, UniProt Q2M2I8)
Experimental: as §1, §2

CAMKK1 = CAMKK1 (Homo sapiens, UniProt Q8N5S9)
Experimental: as §1, §2

CAMKK2 = CAMKK2 (Homo sapiens, UniProt Q96RR4)
Experimental: as §1, §2

RSK1 = target: T2, RSK1 (Homo sapiens, UniProt Q15418)
T2 construct: RPS6KA1(Kin.Dom.2-C-terminal)
Experimental: as §1, §2

ULK1 = target: T3, ULK1 (Homo sapiens, UniProt O75385)
T3 sequence (O75385 1-1050): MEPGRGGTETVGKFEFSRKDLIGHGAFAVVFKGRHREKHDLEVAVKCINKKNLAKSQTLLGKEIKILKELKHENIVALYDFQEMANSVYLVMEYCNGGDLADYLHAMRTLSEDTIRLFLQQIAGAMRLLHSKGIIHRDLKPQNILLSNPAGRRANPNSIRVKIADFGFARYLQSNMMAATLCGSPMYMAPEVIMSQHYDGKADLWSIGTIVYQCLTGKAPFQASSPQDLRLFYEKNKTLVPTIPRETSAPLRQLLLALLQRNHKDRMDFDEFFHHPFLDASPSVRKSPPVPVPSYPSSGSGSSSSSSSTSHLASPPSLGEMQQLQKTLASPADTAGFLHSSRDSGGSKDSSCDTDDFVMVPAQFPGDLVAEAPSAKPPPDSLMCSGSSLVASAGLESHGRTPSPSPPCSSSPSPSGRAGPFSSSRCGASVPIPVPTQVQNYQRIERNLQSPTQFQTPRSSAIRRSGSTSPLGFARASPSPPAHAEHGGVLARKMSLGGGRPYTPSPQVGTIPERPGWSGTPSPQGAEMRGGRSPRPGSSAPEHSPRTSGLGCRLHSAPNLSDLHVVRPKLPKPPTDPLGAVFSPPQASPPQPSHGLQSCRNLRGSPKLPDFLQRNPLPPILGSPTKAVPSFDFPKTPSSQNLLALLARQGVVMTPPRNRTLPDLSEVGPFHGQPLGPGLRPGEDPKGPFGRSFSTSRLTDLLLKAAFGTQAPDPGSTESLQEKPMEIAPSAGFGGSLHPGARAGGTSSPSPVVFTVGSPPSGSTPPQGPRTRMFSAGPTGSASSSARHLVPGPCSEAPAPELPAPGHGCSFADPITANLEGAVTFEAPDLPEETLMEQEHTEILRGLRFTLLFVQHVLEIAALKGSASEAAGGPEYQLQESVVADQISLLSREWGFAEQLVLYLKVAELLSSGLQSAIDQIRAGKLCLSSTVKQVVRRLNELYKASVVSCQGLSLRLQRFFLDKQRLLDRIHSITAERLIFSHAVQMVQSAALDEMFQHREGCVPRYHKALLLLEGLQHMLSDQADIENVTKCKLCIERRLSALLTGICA
Experimental: as §1, §2

AAK1, sequence (Q2M2I8 whole entry): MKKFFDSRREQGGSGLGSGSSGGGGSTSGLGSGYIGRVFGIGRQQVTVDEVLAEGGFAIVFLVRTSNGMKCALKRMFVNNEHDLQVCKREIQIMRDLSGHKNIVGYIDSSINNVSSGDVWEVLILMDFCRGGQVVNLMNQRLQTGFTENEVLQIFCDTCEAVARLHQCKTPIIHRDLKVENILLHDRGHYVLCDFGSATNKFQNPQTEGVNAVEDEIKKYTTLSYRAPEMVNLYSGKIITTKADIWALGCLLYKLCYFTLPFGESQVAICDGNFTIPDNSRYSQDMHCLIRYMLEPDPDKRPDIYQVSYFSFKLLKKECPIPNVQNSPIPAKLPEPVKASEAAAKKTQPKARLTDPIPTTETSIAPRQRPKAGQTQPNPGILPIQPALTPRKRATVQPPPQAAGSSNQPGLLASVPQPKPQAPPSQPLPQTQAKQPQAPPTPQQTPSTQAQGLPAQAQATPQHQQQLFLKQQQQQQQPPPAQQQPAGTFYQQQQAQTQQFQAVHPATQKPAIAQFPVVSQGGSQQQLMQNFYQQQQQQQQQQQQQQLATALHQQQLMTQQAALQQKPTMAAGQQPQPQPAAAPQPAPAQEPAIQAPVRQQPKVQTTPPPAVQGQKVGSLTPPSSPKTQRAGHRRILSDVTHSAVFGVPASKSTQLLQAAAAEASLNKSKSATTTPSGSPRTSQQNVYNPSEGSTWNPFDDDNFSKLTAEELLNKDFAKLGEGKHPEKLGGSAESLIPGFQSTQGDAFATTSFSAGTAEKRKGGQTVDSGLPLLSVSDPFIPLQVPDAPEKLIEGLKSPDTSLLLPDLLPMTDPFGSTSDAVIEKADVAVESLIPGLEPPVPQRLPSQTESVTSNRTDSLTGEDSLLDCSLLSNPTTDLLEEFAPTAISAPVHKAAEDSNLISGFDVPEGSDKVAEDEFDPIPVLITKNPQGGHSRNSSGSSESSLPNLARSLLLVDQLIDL
CAMKK2, sequence (Q96RR4 whole entry): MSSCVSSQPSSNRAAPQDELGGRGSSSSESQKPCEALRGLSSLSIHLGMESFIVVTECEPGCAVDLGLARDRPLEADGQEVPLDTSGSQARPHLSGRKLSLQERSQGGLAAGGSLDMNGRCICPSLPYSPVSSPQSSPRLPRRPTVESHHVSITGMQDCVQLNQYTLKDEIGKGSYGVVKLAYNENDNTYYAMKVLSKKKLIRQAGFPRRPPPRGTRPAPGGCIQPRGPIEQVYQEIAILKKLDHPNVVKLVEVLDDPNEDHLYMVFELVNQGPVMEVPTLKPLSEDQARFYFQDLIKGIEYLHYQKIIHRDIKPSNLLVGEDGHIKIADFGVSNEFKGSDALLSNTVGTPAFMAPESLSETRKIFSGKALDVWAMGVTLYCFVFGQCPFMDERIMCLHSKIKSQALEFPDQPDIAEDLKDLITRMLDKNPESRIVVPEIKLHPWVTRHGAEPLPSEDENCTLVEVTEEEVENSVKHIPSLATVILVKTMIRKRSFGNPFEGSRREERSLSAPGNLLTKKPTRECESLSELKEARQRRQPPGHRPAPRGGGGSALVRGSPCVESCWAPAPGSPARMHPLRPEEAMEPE
T2 sequence (Q15418 whole entry): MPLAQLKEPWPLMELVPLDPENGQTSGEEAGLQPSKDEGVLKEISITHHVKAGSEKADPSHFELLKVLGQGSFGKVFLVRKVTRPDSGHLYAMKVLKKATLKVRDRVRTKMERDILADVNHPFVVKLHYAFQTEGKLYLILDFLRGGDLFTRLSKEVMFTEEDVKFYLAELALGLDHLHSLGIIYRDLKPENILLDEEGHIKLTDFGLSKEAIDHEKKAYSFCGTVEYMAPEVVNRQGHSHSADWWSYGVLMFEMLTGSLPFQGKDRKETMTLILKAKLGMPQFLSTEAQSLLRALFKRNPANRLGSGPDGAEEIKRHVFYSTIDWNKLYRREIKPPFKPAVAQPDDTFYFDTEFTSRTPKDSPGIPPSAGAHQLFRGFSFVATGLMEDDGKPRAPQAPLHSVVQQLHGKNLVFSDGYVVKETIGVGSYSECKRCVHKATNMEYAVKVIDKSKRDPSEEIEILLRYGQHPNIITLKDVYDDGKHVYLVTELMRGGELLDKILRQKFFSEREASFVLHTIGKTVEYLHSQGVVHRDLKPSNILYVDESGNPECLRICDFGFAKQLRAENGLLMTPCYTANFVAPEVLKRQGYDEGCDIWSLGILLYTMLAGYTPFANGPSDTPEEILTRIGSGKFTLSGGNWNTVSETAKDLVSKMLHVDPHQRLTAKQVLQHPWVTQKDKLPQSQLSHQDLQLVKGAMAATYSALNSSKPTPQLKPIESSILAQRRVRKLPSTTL
CAMKK1, sequence (Q8N5S9 whole entry): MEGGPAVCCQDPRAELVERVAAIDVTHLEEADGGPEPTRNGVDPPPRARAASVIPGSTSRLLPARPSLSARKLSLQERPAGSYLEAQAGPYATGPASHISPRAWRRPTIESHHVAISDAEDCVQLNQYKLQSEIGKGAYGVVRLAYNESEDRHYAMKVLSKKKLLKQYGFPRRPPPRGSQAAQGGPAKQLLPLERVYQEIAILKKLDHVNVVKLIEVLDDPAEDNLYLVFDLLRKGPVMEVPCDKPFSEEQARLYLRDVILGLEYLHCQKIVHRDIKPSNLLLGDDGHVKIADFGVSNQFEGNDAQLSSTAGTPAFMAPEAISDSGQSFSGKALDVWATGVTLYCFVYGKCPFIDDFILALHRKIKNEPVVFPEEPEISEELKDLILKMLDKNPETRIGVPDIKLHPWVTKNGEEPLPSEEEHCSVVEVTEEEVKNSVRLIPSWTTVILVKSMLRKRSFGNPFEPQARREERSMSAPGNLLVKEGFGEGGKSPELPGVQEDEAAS
BMPR1B, sequence (O00238 14-502): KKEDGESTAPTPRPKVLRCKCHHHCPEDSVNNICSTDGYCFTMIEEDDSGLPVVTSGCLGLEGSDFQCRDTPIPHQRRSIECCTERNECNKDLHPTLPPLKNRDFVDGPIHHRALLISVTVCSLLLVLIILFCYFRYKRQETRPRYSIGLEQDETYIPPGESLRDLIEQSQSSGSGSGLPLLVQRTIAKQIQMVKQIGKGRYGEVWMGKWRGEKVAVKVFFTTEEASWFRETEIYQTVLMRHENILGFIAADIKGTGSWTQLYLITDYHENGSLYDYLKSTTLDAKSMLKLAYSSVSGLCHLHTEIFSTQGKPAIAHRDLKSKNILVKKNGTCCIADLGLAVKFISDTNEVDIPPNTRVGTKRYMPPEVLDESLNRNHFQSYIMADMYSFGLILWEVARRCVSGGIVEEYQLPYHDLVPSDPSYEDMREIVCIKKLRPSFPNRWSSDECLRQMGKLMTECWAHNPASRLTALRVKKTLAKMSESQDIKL
CLK2, sequence (P49760 whole entry): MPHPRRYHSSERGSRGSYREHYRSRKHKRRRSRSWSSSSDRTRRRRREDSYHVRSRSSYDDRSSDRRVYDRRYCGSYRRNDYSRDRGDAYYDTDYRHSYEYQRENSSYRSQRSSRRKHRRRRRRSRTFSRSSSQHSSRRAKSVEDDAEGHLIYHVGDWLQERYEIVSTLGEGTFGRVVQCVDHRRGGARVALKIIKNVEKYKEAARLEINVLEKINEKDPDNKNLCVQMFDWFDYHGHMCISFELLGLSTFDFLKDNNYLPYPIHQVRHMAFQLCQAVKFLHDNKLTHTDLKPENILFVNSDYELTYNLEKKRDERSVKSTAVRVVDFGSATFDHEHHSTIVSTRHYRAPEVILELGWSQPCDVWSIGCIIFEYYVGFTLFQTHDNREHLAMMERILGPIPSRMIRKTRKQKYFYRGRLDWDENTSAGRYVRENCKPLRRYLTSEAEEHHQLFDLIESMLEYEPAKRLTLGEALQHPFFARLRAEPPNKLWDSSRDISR

Row | Compound | Kd (BMPR1B) [µM] | Kd (CLK2) [µM] | Kd (DYRK2) [µM] | Kd (AAK1) [µM] | Kd (CAMKK1) [µM] | Kd (CAMKK2) [µM] | Kd (RSK1) [µM] | Kd (ULK1) [µM]
1 | Nc1nc2c(-c3cnc4ccccc4c3)nccc2[nH]1 [drawing 36, 4-(quinolin-3-yl)-1H-imidazo[4,5-c]pyridin-2-amine] | 7.2 | 1.2 | 0.97 |  |  |  |  | 
2 | Nc1nc2c(-c3ccccn3)nccc2[nH]1 [drawing 35, 4-(pyrid-2-yl)-1H-imidazo[4,5-c]pyridin-2-amine] |  |  |  | 1.5 | > 30 | > 30 | 0.53 | 24

— patent US20110152313A1 (MACQUARIE UNIVERSITY, priority 2008, published 2011)
